Values of other authors, collected in patent US7232830B2, “Method for treatment of neurodegenerative diseases and effects of aging” (priority 1998, dated 2007).
Counter-ions that a name gives are not always drawn.

Key:
MAO-B = biological target: T1, MAO-B (Rattus norvegicus, UniProt P19643); settings: in vitro, rat brain
T1 construct: in vitro on monoamine oxidase activity in the rat brain; host or cells: rat brain
T1 sequence (P19643 1-520): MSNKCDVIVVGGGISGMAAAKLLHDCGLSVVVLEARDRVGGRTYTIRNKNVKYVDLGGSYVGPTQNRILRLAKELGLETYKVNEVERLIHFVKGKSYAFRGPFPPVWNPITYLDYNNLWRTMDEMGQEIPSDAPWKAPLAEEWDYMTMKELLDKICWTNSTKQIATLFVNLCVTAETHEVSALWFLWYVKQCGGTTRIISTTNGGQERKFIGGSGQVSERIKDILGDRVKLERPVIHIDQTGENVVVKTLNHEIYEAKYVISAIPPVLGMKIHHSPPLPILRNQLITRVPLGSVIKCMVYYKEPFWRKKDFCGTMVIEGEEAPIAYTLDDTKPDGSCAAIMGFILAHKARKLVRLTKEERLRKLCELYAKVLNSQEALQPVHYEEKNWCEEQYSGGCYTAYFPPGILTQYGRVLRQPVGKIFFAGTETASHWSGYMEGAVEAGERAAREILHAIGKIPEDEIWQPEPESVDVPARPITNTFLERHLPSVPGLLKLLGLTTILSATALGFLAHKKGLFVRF

[1] = tested on: histamine metabolism in the mouse brain

effect on a histidine decarboxylase inhibitor [1] | effect on histamine increase induced by a histamine N-methyltransferase inhibitor [1] | Structure (SMILES) | effect on MAO-B (MAO-B)
– | – | S=C(NC1CCCCC1)N1CCC(c2cnc[nH]2)CC1 [thioperamide maleate] | inhibits MAO-B
no significant affect | inhibited the histamine increase | COC(=O)[C@H]1[C@H]2C[C@@H]3c4[nH]c5cc(OC)ccc5c4CCN3C[C@H]2C[C@@H](OC(=O)c2cc(OC)c(OC)c(OC)c2)[C@@H]1OC [reserpine] | –
